# Measured values as given in the Kinase Knowledgebase extract (Sharma et al. 2016).
# Target: PIK3CA (human) (UniProt P42336)
# Assay: Assessment of PIK3CA Kinase Activity
# PIK3CA (human), sequence (P42336 whole entry, looked up): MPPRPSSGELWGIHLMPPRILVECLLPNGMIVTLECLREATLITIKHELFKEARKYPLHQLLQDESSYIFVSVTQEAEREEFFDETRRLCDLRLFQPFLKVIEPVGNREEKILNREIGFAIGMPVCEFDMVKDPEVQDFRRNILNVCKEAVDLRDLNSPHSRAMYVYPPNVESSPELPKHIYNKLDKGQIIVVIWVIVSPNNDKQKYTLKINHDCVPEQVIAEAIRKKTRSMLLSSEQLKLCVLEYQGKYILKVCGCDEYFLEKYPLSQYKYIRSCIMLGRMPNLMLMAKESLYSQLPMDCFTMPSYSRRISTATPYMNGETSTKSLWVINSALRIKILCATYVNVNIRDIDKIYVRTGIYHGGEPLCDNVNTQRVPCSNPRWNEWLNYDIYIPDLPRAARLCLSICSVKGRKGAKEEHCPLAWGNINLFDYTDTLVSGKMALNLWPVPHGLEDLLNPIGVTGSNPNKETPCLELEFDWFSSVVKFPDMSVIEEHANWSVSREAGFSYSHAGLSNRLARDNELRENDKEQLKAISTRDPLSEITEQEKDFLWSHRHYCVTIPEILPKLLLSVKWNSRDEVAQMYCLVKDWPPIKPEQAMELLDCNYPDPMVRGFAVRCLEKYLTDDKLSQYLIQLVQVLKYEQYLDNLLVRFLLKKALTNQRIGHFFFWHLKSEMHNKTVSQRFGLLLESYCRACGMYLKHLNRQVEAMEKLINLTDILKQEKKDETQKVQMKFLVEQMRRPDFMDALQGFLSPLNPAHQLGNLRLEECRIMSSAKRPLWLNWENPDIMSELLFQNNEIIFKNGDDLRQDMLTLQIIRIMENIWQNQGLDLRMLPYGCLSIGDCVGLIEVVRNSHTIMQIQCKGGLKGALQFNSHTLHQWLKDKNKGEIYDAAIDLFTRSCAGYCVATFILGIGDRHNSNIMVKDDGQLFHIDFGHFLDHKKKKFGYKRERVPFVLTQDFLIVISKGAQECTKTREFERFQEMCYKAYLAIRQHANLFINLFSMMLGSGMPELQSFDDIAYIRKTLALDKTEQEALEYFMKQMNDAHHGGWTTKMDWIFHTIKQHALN
row,IC50,SMILES
1,≤ 100 nM,CCN(CCF)Cc1nc(C)c(C(C)C)c(N2CCOc3c(C)cc(-c4cnc5sc(N)nc5c4)cc3C2)n1
2,≤ 100 nM,Cc1cc(-c2cnc3sc(N)nc3c2)cc2c1OCCN(c1ncncc1C(C)C)C2
3,≤ 100 nM,Cc1cc(-c2cnc3sc(N)nc3c2)cc2c1OCCN(c1ncnc(C)c1C(C)C)C2
4,≤ 100 nM,Cc1cc(-c2cnc3sc(N)nc3c2)cc2c1OCCN(c1nc(CN3CCCC3)ncc1C(C)C)C2
5,≤ 100 nM,Cc1cc(-c2cn(C)nc2C)cc2c1OCCN(c1nc(N)nc(C)c1C(C)C)C2
6,100 to 500 nM,Cc1cnc(N2CCOc3c(C)cc(-c4cnc5sc(N)nc5c4)cc3C2)nc1N
7,≤ 100 nM,COCCOc1nc(C)c(C(C)C)c(N2CCOc3c(C)cc(-c4cnc5sc(N)nc5c4)cc3C2)n1
8,≤ 100 nM,C=Cc1c(C)nc(N)nc1N1CCOc2c(C)cc(-c3cnc4sc(N)nc4c3)cc2C1
9,≤ 100 nM,C=CCc1c(C)nc(N)nc1N1CCOc2c(C)cc(-c3cnc4sc(N)nc4c3)cc2C1
10,100 to 500 nM,CCn1cc(-c2cc(C)c3c(c2)CN(c2nc(N)nc(C)c2C(C)C)CCO3)cn1
11,100 to 500 nM,Cc1cc(-c2cnc3sc(N)nc3c2)cc2c1OCCN(c1ncc(C(N)=O)c(N)n1)C2
12,≤ 100 nM,Cc1cc(-c2cnc(Cl)c(NS(C)(=O)=O)c2)cc2c1OCCN(c1nc(N)nc(C)c1C(C)C)C2
13,≤ 100 nM,Cc1cc(-c2ccc3c(c2)OCO3)cc2c1OCCN(c1nc(N)nc(C)c1C(C)C)C2
14,≤ 100 nM,C=Cc1c(Cl)nc(N)nc1N1CCOc2c(C)cc(-c3cnc4sc(N)nc4c3)cc2C1
15,≤ 100 nM,COc1ccc(-c2cc(C)c3c(c2)CN(c2nc(N)nc(C)c2C(C)C)CCO3)cc1OC
16,≤ 100 nM,Cc1cc(-c2cnc3sc(N)nc3c2)cc2c1OCCN(c1nc(C(F)F)nc(C)c1C(C)C)C2
17,≤ 100 nM,Cc1cc(-c2cnc3sc(N)nc3c2)cc2c1OCCN(c1nc(NCCN(C)C)nc(C)c1C(C)C)C2
18,≤ 100 nM,COCCc1c(C)nc(CN2CCCC2)nc1N1CCOc2c(C)cc(-c3cnc4sc(N)nc4c3)cc2C1
19,≤ 100 nM,Cc1cc(-c2cnc3sc(N)nc3c2)cc2c1OCCN(c1nc(N)nc(C)c1-c1cccc(F)c1)C2
20,≤ 100 nM,Cc1cc(-c2cnc(Cl)c(NS(C)(=O)=O)c2)cc2c1OCCN(c1ncc(C#N)c(N)n1)C2
21,≤ 100 nM,Cc1cnc(N)nc1N1CCOc2c(C)cc(-c3nnc(N)s3)cc2C1
22,100 to 500 nM,Cc1cc(-c2cnc3sc(N)nc3c2)cc2c1OCCN(c1nccnc1C#N)C2
23,≤ 100 nM,CCN(CC)Cc1nc(C)c(C(C)C)c(N2CCOc3c(C)cc(-c4cnc5sc(N)nc5c4)cc3C2)n1

row,IC50,SMILES
1,100 to 500 nM,Cc1ncc(-c2cc(C)c3c(c2)CN(c2nc(N)nc(C)c2C(C)C)CCO3)s1
2,≤ 100 nM,Cc1cc(-c2cnc3sc(N)nc3c2)cc2c1OCCN(c1nc(C3CCCN3C)nc(C)c1C(C)C)C2 (configuration not stated)
3,≤ 100 nM,CCNCc1nc(C)c(C(C)C)c(N2CCOc3c(C)cc(-c4cnc5sc(N)nc5c4)cc3C2)n1
4,≤ 100 nM,Cc1cc(-c2cnc(N)nc2)cc2c1OCCN(c1nc(N)nc(C)c1C(C)C)C2
5,≤ 100 nM,CC#CCc1c(C)nc(C)nc1N1CCOc2c(C)cc(-c3cnc4sc(N)nc4c3)cc2C1
6,≤ 100 nM,Cc1cc(-c2cnc3sc(N)nc3c2)cc2c1OCCN(c1nc(N)nc(Cl)c1C(C)C)C2
7,≤ 100 nM,Cc1nc2c(c(N3CCOc4c(C)cc(-c5cnc6sc(N)nc6c5)cc4C3)n1)CC(C)(C)CC2
8,100 to 500 nM,CNc1nc(-c2cc(C)c3c(c2)CN(c2nc(N)nc(C)c2C(C)C)CCO3)cs1
9,≤ 100 nM,Cc1cc(-c2cnc3sc(N)nc3c2)cc2c1OCCN(c1nc(N)c(C#N)c(C)c1C#N)C2
10,≤ 100 nM,Cc1cc(-c2cnc3sc(N)nc3c2)cc2c1OCCN(c1ncc(F)c(N)n1)C2
11,≤ 100 nM,Cc1cc(-c2cnc3sc(N)nc3c2)cc2c1OCCN(c1nc([S+](C)[O-])nc(C)c1C(C)C)C2 (configuration not stated)
12,≤ 100 nM,Cc1cc(-c2cnc3sc(N)nc3c2)cc2c1OCCN(c1nc(CN(C)C)ncc1C(C)C)C2
13,≤ 100 nM,Cc1cc(-c2cnc3sc(N)nc3c2)cc2c1OCCN(c1nc(N3CCN(C)CC3)nc(C)c1C(C)C)C2
14,≤ 100 nM,COc1ccc(-c2cc(C)c3c(c2)CN(c2nc(N)nc(C)c2C(C)C)CCO3)cn1
15,≤ 100 nM,Cc1cc(-c2cnc3sc(N)nc3c2)cc2c1OCCN(c1nc(CNCC(F)(F)F)nc(C)c1C(C)C)C2
16,≤ 100 nM,CCc1c(Cl)nc(CN(C)C)nc1N1CCOc2c(C)cc(-c3cnc4sc(N)nc4c3)cc2C1
17,≤ 100 nM,Cc1cc(-c2cnc3sc(N)nc3c2)cc2c1OCCN(c1ncnc3c1CC(C)(C)C=C3)C2
18,≤ 100 nM,CCc1nc(CN(C)C)nc(N2CCOc3c(C)cc(-c4cnc5sc(N)nc5c4)cc3C2)c1CC
19,≤ 100 nM,Cc1cc(-c2cnc3sc(N)nc3c2)cc2c1OCCN(c1nc(N)ncc1C(C)C)C2
20,≤ 100 nM,CCc1c(Cl)nc(N)nc1N1CCOc2c(C)cc(-c3cnc4sc(N)nc4c3)cc2C1
21,≤ 100 nM,Cc1cc(-c2cnc3sc(N)nc3c2)cc2c1OCCN(c1nc(N)c(C#N)cc1C#N)C2
22,≤ 100 nM,Cc1cc(-c2nnc(N)s2)cc2c1OCCN(c1ncnc(C)c1C(C)C)C2
23,≤ 100 nM,Cc1cc(-c2cnc3sc(N)nc3c2)cc2c1OCCN(c1nc(N)ncc1C(F)(F)F)C2

row,IC50,SMILES
1,≤ 100 nM,Cc1ncc(C(C)C)c(N2CCOc3c(C)cc(-c4cnc5sc(N)nc5c4)cc3C2)n1
2,≤ 100 nM,CNCc1nc(C)c(C(C)C)c(N2CCOc3c(C)cc(-c4cnc5sc(N)nc5c4)cc3C2)n1
3,≤ 100 nM,Cc1cc(-c2nnc(N)s2)cc2c1OCCN(c1nc(CNCC(F)F)nc(C)c1C(C)C)C2
4,≤ 100 nM,Cc1nc2cc(-c3cc(C)c4c(c3)CN(c3nc(N)nc(C)c3C(C)C)CCO4)cnc2[nH]1
5,≤ 100 nM,C=Cc1c(C)nc(N)nc1N1CCOc2c(C)cc(-c3nnc(N)s3)cc2C1
6,≤ 100 nM,Cc1cc(-c2cnc3sc(N)nc3c2)cc2c1OCCN(c1nc(N)nc(C)c1C)C2
7,≤ 100 nM,Cc1cc(-c2cnc(Cl)c(NS(C)(=O)=O)c2)cc2c1OCCN(c1nc(C(=O)NCCN(C)C)nc(C)c1C(C)C)C2
8,100 to 500 nM,Cc1cc(-c2cnc3sc(N)nc3c2)cc2c1OCCN(c1ncnc(Cl)c1C(C)(C)O)C2
9,≤ 100 nM,COCCc1nc(C)c(C(C)C)c(N2CCOc3c(C)cc(-c4cnc5sc(N)nc5c4)cc3C2)n1
10,100 to 500 nM,Cc1cc(-c2cccc(C(N)=O)c2)cc2c1OCCN(c1nc(N)nc(C)c1C(C)C)C2
11,≤ 100 nM,Cc1cc(-c2cnc3sc(N)nc3c2)cc2c1OCCN(c1nc(N)ccc1C#N)C2
12,≤ 100 nM,Cc1cc(-c2cnc3sc(N)nc3c2)cc2c1OCCN(c1ncnc(Cl)c1C(C)C)C2
13,100 to 500 nM,Cc1cc(-c2cnc3sc(N)nc3c2)cc2c1OCCN(c1ccc(C#N)cn1)C2
14,≤ 100 nM,C=C(C)c1c(C)nc(N)nc1N1CCOc2c(C)cc(-c3cnc4sc(N)nc4c3)cc2C1
15,≤ 100 nM,CC(=O)NCc1nc(C)c(C(C)C)c(N2CCOc3c(C)cc(-c4cnc5sc(N)nc5c4)cc3C2)n1
16,≤ 100 nM,Cc1cc(-c2ccn[nH]2)cc2c1OCCN(c1nc(N)nc(C)c1C(C)C)C2
17,≤ 100 nM,CC(=O)c1c(C)ncnc1N1CCOc2c(C)cc(-c3cnc4sc(N)nc4c3)cc2C1
18,≤ 100 nM,COc1ncc(-c2cc(C)c3c(c2)CN(c2nc(N)nc(C)c2C(C)C)CCO3)cn1
19,≤ 100 nM,Cc1cc(-c2cnc3sc(N)nc3c2)cc2c1OCCN(c1nc([C@@H]3CC(F)(F)CN3)nc(C)c1C(C)C)C2
20,≤ 100 nM,Cc1cc(-c2cnc3sc(N)nc3c2)cc2c1OCCN(c1nc(CNC(C)(C)C)nc(C)c1C(C)C)C2
21,≤ 100 nM,Cc1nc2ccc(-c3cc(C)c4c(c3)CN(c3ncnc5ccc(I)cc35)CCO4)cc2[nH]1
